Experimental data from ChEMBL document CHEMBL3046858, “Synthesis and fungicidal activities of novel indene-substituted oxime ether strobilurins” (2008).

Assays:
Type in all cases: functional
Design in all cases: dose or concentration left out as unconfirmed
Colletotrichum lagenaria = assay: Fungicidal activity against Colletotrichum lagenaria infected in compound pre-treated cucumber plants assessed as inhibition of fungal growth at 6.25 mg/ml measured 3 days post compound treatment
Blumeria graminis = assay: Fungicidal activity against Blumeria graminis grown on compound pre-treated wheat seedlings assessed as inhibition of fungal growth at 6.25 mg/ml measured 7 days post fungal inoculation
[1] = system: Pseudoperonospora cubensis; assay: Fungicidal activity against Pseudoperonospora cubensis grown on compound pre-treated cucumber leaves assessed as inhibition of fungal growth at 6.25 mg/ml measured 5 days post compound treatment
Botrytis cinerea = assay: Fungicidal activity against Botryotinia fuckeliana assessed as inhibition of mycelial growth at 25 mg/ml measured after 48 hr
Phytophthora infestans = assay: Fungicidal activity against Phytophthora infestans assessed as inhibition of mycelial growth at 25 mg/ml measured after 48 hr
Pyricularia oryzae = assay: Fungicidal activity against Magnaporthe oryzae assessed as inhibition of mycelial growth at 25 mg/ml measured after 48 hr

SMILES | inhibition (Colletotrichum lagenaria) | inhibition (Blumeria graminis) | inhibition [1] | inhibition (Botrytis cinerea) | inhibition (Phytophthora infestans) | inhibition (Pyricularia oryzae)
CNC(=O)/C(=N/OC)c1ccccc1CO/N=C(\C)C1=Cc2ccccc2C1 | 95% | 100% | 95% | 100% | 100% | 100%
CNC(=O)/C(=N/OC)c1ccccc1CO/N=C(\C)C1=Cc2ccc(Cl)cc2C1 | 100% | 100% | 85% | 100% | 100% | 100%
CNC(=O)/C(=N/OC)c1ccccc1CO/N=C(\C)C1=Cc2ccc(F)cc2C1 | 100% | 100% | 100% | 80% | 100% | 100%
CNC(=O)/C(=N/OC)c1ccccc1CO/N=C(\C)C1=Cc2ccc(C)cc2C1 | 100% | 100% | 100% | 100% | 100% | 100%
CNC(=O)/C(=N/OC)c1ccccc1CO/N=C(\C)C1=Cc2cc(Cl)ccc2C1 | 98% | 100% | 90% | 100% | 80% | 80%
CNC(=O)/C(=N/OC)c1ccccc1CO/N=C(\C)C1=Cc2cc(F)ccc2C1 | 30% | 100% | 30% | 80% | 80% | 100%
CNC(=O)/C(=N/OC)c1ccccc1CO/N=C(\C)C1=Cc2c(Cl)cccc2C1 | 80% | 100% | 100% | 80% | 100% | 100%
CO/C=C(/C(=O)OC)c1ccccc1CO/N=C(C)/C=C/c1ccc(Cl)cc1 | 50% | 62.5% | 100% | 80% |  | 100%
CO/C=C(/C(=O)OC)c1ccccc1CO/N=C(\C)C1=Cc2ccc(Cl)cc2C1 | 60% | 100% | 40% | 80% | 100% | 50%
CO/C=C(/C(=O)OC)c1ccccc1CO/N=C(\C)C1=Cc2ccc(F)cc2C1 | 60% | 100% |  | 50% | 100% | 100%
CO/C=C(/C(=O)OC)c1ccccc1CO/N=C(\C)C1=Cc2ccc(C)cc2C1 | 70% | 100% | 80% | 80% | 100% | 100%
CO/C=C(/C(=O)OC)c1ccccc1CO/N=C(\C)C1=Cc2cc(Cl)ccc2C1 | 30% | 100% | 30% | 80% | 100% | 100%
CO/C=C(/C(=O)OC)c1ccccc1CO/N=C(\C)C1=Cc2c(Cl)cccc2C1 | 30% | 85% | 0% | 80% | 100% | 100%
CO/N=C(/C(=O)OC)c1ccccc1CO/N=C(\C)C1=Cc2ccccc2C1 | 30% | 10% | 30% | 80% | 100% | 100%
CO/N=C(/C(=O)OC)c1ccccc1CO/N=C(\C)C1=Cc2ccc(Cl)cc2C1 | 65% | 90% | 50% | 80% | 100% | 100%
CO/N=C(/C(=O)OC)c1ccccc1CO/N=C(\C)C1=Cc2ccc(F)cc2C1 | 40% | 85% | 85% | 50% | 100% | 100%
CO/N=C(/C(=O)OC)c1ccccc1CO/N=C(\C)C1=Cc2ccc(C)cc2C1 | 90% | 100% | 100% | 80% | 100% | 100%
CO/N=C(/C(=O)OC)c1ccccc1CO/N=C(\C)C1=Cc2cc(Cl)ccc2C1 | 90% | 95% | 95% | 80% | 100% | 100%
CO/N=C(/C(=O)OC)c1ccccc1CO/N=C(\C)C1=Cc2cc(F)ccc2C1 | 40% | 100% | 70% | 80% | 100% | 50%
CO/N=C(/C(=O)OC)c1ccccc1CO/N=C(\C)C1=Cc2c(Cl)cccc2C1 | 100% | 100% | 90% | 100% | 100% | 100%
CO/N=C(\C(=O)OC)c1ccccc1CO/N=C(\C)c1cccc(C(F)(F)F)c1 | 60% | 100% | 50% | 100% |  | 100%
CO/N=C(/C(=O)OC)c1ccccc1COc1ccccc1C [KRESOXIM-METHYL] | 30% | 100% | 0% | 100% |  | 100%
